# Source: the supplement of paper PMC10307832
# Tests used:
# Experiment in all cases: relative viability (nuclei count vs DMSO), 5 days (fraction); higher = more cells survive
# NCI-H647 = tested on: NCI-H647
# How it was run: (§1)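 Lung cancer cell lines were seeded in 1536-well plates and dosed by pin tool the next day, with either a single drug or a fixed anchor-drug dose combined with five library-drug doses (not always all listed) spaced in √10 steps. Five days later, one step fixed the cells and stained their nuclei (final 0.05% Triton X-100, 1% formaldehyde, 1 ug/ml Hoechst), and nuclei were counted on 4× images. Relative viability is the nuclei count in treated wells divided by the count in vehicle wells, and each value is the median of duplicate plates.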
# LOU-NH91 = tested on: LOU-NH91
# How it was run: as §1
# NCI-H1975 = tested on: NCI-H1975
# How it was run: as §1
# NCI-H1915 = tested on: NCI-H1915
# How it was run: as §1
# LC-2-ad = tested on: LC-2-ad
# How it was run: as §1
# NCI-H2126 = tested on: NCI-H2126
# How it was run: as §1
# HCC-78 = tested on: HCC-78
# How it was run: as §1
# NCI-H2228 = tested on: NCI-H2228
# How it was run: as §1
# NCI-H2347 = tested on: NCI-H2347
# How it was run: as §1
# LXF-289 = tested on: LXF-289
# How it was run: as §1
# NCI-H1792 = tested on: NCI-H1792
# How it was run: as §1
smiles,measurement,setting,value
NC(=O)Nc1cc(-c2cccc(F)c2)sc1C(=O)N[C@H]1CCCNC1 [AZD7762] + CC(C)C[C@H](NC(=O)[C@H](Cc1ccccc1)NC(=O)c1cnccn1)B(O)O [Bortezomib] (partner 0.002 µM),relative viability,NCI-H647; first compound 0.1 µM,0.919
same,relative viability,NCI-H647; first compound 0.3162 µM,0.634
same,relative viability,NCI-H647; first compound 1 µM,0.0894
same,relative viability,LOU-NH91; first compound 0.01 µM,0.558
same,relative viability,LOU-NH91; first compound 0.03162 µM,0.462
same,relative viability,LOU-NH91; first compound 0.1 µM,0.487
same,relative viability,LOU-NH91; first compound 0.3162 µM,0.548
same,relative viability,LOU-NH91; first compound 1 µM,0.522
same,relative viability,NCI-H1975; first compound 0.01 µM,0.468
same,relative viability,NCI-H1975; first compound 0.03162 µM,0.44
same,relative viability,NCI-H1975; first compound 0.1 µM,0.417
same,relative viability,NCI-H1975; first compound 0.3162 µM,0.399
same,relative viability,NCI-H1975; first compound 1 µM,0.272
same,relative viability,NCI-H1915; first compound 0.01 µM,0.989
same,relative viability,NCI-H1915; first compound 0.03162 µM,0.99
same,relative viability,NCI-H1915; first compound 0.1 µM,1.03
same,relative viability,NCI-H1915; first compound 0.3162 µM,1.02
same,relative viability,NCI-H1915; first compound 1 µM,0.959
same,relative viability,LC-2-ad; first compound 0.01 µM,1.04
same,relative viability,LC-2-ad; first compound 0.03162 µM,1.14
same,relative viability,LC-2-ad; first compound 0.1 µM,0.975
same,relative viability,LC-2-ad; first compound 0.3162 µM,0.909
same,relative viability,LC-2-ad; first compound 1 µM,0.732
same,relative viability,NCI-H2126; first compound 0.01 µM,1.06
same,relative viability,NCI-H2126; first compound 0.03162 µM,1.11
same,relative viability,NCI-H2126; first compound 0.1 µM,1.18
same,relative viability,NCI-H2126; first compound 0.3162 µM,1.2
same,relative viability,NCI-H2126; first compound 1 µM,1.07
same,relative viability,HCC-78; first compound 0.01 µM,0.561
same,relative viability,HCC-78; first compound 0.03162 µM,0.528
same,relative viability,HCC-78; first compound 0.1 µM,0.526
same,relative viability,HCC-78; first compound 0.3162 µM,0.62
same,relative viability,HCC-78; first compound 1 µM,0.391
same,relative viability,NCI-H2228; first compound 0.01 µM,1.04
same,relative viability,NCI-H2228; first compound 0.03162 µM,1.33
same,relative viability,NCI-H2228; first compound 0.1 µM,1.03
same,relative viability,NCI-H2228; first compound 0.3162 µM,0.723
same,relative viability,NCI-H2228; first compound 1 µM,0.389
same,relative viability,NCI-H2347; first compound 0.01 µM,1.1
same,relative viability,NCI-H2347; first compound 0.03162 µM,0.967
same,relative viability,NCI-H2347; first compound 0.1 µM,0.863
same,relative viability,NCI-H2347; first compound 0.3162 µM,1.17
same,relative viability,NCI-H2347; first compound 1 µM,0.685
same,relative viability,LXF-289; first compound 0.01 µM,0.918
same,relative viability,LXF-289; first compound 0.03162 µM,0.947
same,relative viability,LXF-289; first compound 0.1 µM,1.07
same,relative viability,LXF-289; first compound 0.3162 µM,1
same,relative viability,LXF-289; first compound 1 µM,1.12
same,relative viability,NCI-H1792; first compound 0.01 µM,0.982
same,relative viability,NCI-H1792; first compound 0.03162 µM,0.941
same,relative viability,NCI-H1792; first compound 0.1 µM,0.925
same,relative viability,NCI-H1792; first compound 0.3162 µM,1.01
same,relative viability,NCI-H1792; first compound 1 µM,1.04
